Results: patent US20050112573A1, “Method of detecting toxic substance” (priority 2001, published 2005)

Test system: yeast genes (level of expressed mRNA)
Assay: DNA chip analysis of expressed mRNA of yeast genes after 2 h culture with a toxic chemical substance
Format: cell-based, Saccharomyces cerevisiae S288C
Protocol: Yeast (Saccharomyces cerevtisiae S288C (α SUC2mal mel gap2 CUP1)) were cultured at 25° C. on YPD medium (yeast extract 1%, polypepton 2%, glucose 2%). One of toxic chemical substances was added to the cell at logarithmic growth phase, and the cell was further cultured for two hours. Cell was cultured without any chemical substance in the same condition, and was used as control. Concentrations of the chemical substances were defined to inhibit the growth of the yeast but not lead to death.
After the completion of cultivation, the culture was centrifuged to collect the cells. To the cells, sodium acetate buffer (50 mM sodium acetate, 10 mM EDTA, 1% SDS) was added, and the mixture was shaken at 65° C. for five minutes, followed by returning to room temperature, and obtaining the supernatant, which procedure was repeated two times. To the supernatant, ½ amount of a solution of phenol/chloroform was added, and the mixture was centrifuged to give a supernatant, which was added with an equal amount of chloroform, and the mixture was centrifuged to give a supernatant. To the supernatant, an equal amount of isopropanol containing 0.3 M sodium acetate was added, and the mixture was allowed to stand at room temperature for 30 minutes, after which the mixture was centrifuged to give a sediment of the whole RNAs. Seventy % ethanol was added to the sediment, and the mixture was again centrifuged to give a sediment, which was then dried and dissolved in water. mRNA was isolated from the whole RNAs as followings. In view of the fact that a poly A chain is attached to the 3′ terminus of mRNA, a polynucleotide having a poly T structure which was immobilized on the surface of latex beads was used to trap the mRNA, and then the mRNA was washed and eluted with spine column (Oligotex-dT30<Super>mRNA Purification Kit, Takara). Reverse transcription of the mRNA was conducted with a reverse transcriptase (Super Script II Reverse Transcriptase; catalogue No. 18064-014, GibcoBRL) using fluorescence-labeled nucleotides to give cDNAs that were introduced with Cy3-dUTP or Cy5-dUTP during the reverse transcription.
The labeled cDNAs were dissolved in TE buffer (10 mM Tris-HCl/1 mM EDTA, pH8.0), and the solution was dropped on the DNA chip containing the whole genes of yeast (DNA Chip Research Inc. Japan) so that the cDNAs were hybridized on the DNA chip at 65° C. for over 12 hours. The fluoresces intensity of the DNA chip was read with a scanner, and the ratio relative to the fluorescence intensity resulting from the absence of chemical substance was estimated as the following, which is shown in Tables 1 to 9: [formula]
In the Tables, “Intensity” indicated in the rightmost column is a value of the level of expressed mRNA of each gene in control cells as divided by the average level of the expressions of the whole genes.

N#Cc1c(Cl)c(Cl)c(Cl)c(C#N)c1Cl [(9), 2,4,5,6-tetrachloro-1,3-benzenedicarbonitrile]
The level of expressed mRNA in the presence of chemical substance/The level of expressed mRNA in the absence of chemical substance (yeast gene YKL039W): 1.3
The level of expressed mRNA in the presence of chemical substance/The level of expressed mRNA in the absence of chemical substance (yeast gene YKL041W): 1.6
The level of expressed mRNA in the presence of chemical substance/The level of expressed mRNA in the absence of chemical substance (yeast gene YKL139W): 1.6
The level of expressed mRNA in the presence of chemical substance/The level of expressed mRNA in the absence of chemical substance (yeast gene YKL165C): 0.4
The level of expressed mRNA in the presence of chemical substance/The level of expressed mRNA in the absence of chemical substance (yeast gene YKL193C): 1.0
The level of expressed mRNA in the presence of chemical substance/The level of expressed mRNA in the absence of chemical substance (yeast gene YKR014C): 2.4
The level of expressed mRNA in the presence of chemical substance/The level of expressed mRNA in the absence of chemical substance (yeast gene YLR093C): 1.5
The level of expressed mRNA in the presence of chemical substance/The level of expressed mRNA in the absence of chemical substance (yeast gene YLR120C): 1.8
The level of expressed mRNA in the presence of chemical substance/The level of expressed mRNA in the absence of chemical substance (yeast gene YLR136C): 0.9
The level of expressed mRNA in the presence of chemical substance/The level of expressed mRNA in the absence of chemical substance (yeast gene YLR178C): 4.3
The level of expressed mRNA in the presence of chemical substance/The level of expressed mRNA in the absence of chemical substance (yeast gene YLR250W): 2.7
The level of expressed mRNA in the presence of chemical substance/The level of expressed mRNA in the absence of chemical substance (yeast gene YLR327C): 3.0
The level of expressed mRNA in the presence of chemical substance/The level of expressed mRNA in the absence of chemical substance (yeast gene YLR356W): 2.3
The level of expressed mRNA in the presence of chemical substance/The level of expressed mRNA in the absence of chemical substance (yeast gene YLR362W): 3.5
The level of expressed mRNA in the presence of chemical substance/The level of expressed mRNA in the absence of chemical substance (yeast gene YLR391W): 0.4
The level of expressed mRNA in the presence of chemical substance/The level of expressed mRNA in the absence of chemical substance (yeast gene YLR429W): 0.9
The level of expressed mRNA in the presence of chemical substance/The level of expressed mRNA in the absence of chemical substance (yeast gene YMR004W): 94.2
The level of expressed mRNA in the presence of chemical substance/The level of expressed mRNA in the absence of chemical substance (yeast gene YMR104C): 0.6
The level of expressed mRNA in the presence of chemical substance/The level of expressed mRNA in the absence of chemical substance (yeast gene YMR219W): 2.3
The level of expressed mRNA in the presence of chemical substance/The level of expressed mRNA in the absence of chemical substance (yeast gene YMR226C): 2.6
The level of expressed mRNA in the presence of chemical substance/The level of expressed mRNA in the absence of chemical substance (yeast gene YMR275C): 2.4
The level of expressed mRNA in the presence of chemical substance/The level of expressed mRNA in the absence of chemical substance (yeast gene YMR276W): 1.8
The level of expressed mRNA in the presence of chemical substance/The level of expressed mRNA in the absence of chemical substance (yeast gene YMR314W): 5.9
The level of expressed mRNA in the presence of chemical substance/The level of expressed mRNA in the absence of chemical substance (yeast gene YNL006W): 4.0
The level of expressed mRNA in the presence of chemical substance/The level of expressed mRNA in the absence of chemical substance (yeast gene YNL007C): 3.0
The level of expressed mRNA in the presence of chemical substance/The level of expressed mRNA in the absence of chemical substance (yeast gene YNL093W): 1.7
The level of expressed mRNA in the presence of chemical substance/The level of expressed mRNA in the absence of chemical substance (yeast gene YNL333W): 2.3
The level of expressed mRNA in the presence of chemical substance/The level of expressed mRNA in the absence of chemical substance (yeast gene YNR010W): 1.7
The level of expressed mRNA in the presence of chemical substance/The level of expressed mRNA in the absence of chemical substance (yeast gene YNR069C): 5.5
The level of expressed mRNA in the presence of chemical substance/The level of expressed mRNA in the absence of chemical substance (yeast gene YOL013C): 0.8
The level of expressed mRNA in the presence of chemical substance/The level of expressed mRNA in the absence of chemical substance (yeast gene YOL164W): 4.9
The level of expressed mRNA in the presence of chemical substance/The level of expressed mRNA in the absence of chemical substance (yeast gene YOR036W): 1.2
The level of expressed mRNA in the presence of chemical substance/The level of expressed mRNA in the absence of chemical substance (yeast gene YOR117W): 3.5
The level of expressed mRNA in the presence of chemical substance/The level of expressed mRNA in the absence of chemical substance (yeast gene YOR124C): 2.0
The level of expressed mRNA in the presence of chemical substance/The level of expressed mRNA in the absence of chemical substance (yeast gene YOR132W): 2.8
The level of expressed mRNA in the presence of chemical substance/The level of expressed mRNA in the absence of chemical substance (yeast gene YOR157C): 5.7
The level of expressed mRNA in the presence of chemical substance/The level of expressed mRNA in the absence of chemical substance (yeast gene YOR181W): 0.6
The level of expressed mRNA in the presence of chemical substance/The level of expressed mRNA in the absence of chemical substance (yeast gene YOR185C): 1.9
The level of expressed mRNA in the presence of chemical substance/The level of expressed mRNA in the absence of chemical substance (yeast gene YOR198C): 2.4
The level of expressed mRNA in the presence of chemical substance/The level of expressed mRNA in the absence of chemical substance (yeast gene YOR259C): 2.7
The level of expressed mRNA in the presence of chemical substance/The level of expressed mRNA in the absence of chemical substance (yeast gene YOR261C): 5.5
The level of expressed mRNA in the presence of chemical substance/The level of expressed mRNA in the absence of chemical substance (yeast gene YOR288C): 0.9
The level of expressed mRNA in the presence of chemical substance/The level of expressed mRNA in the absence of chemical substance (yeast gene YOR355W): 0.1
The level of expressed mRNA in the presence of chemical substance/The level of expressed mRNA in the absence of chemical substance (yeast gene YOR383C): 1.2
The level of expressed mRNA in the presence of chemical substance/The level of expressed mRNA in the absence of chemical substance (yeast gene YPL089C): 0.4
The level of expressed mRNA in the presence of chemical substance/The level of expressed mRNA in the absence of chemical substance (yeast gene YPL109C): 1.2
The level of expressed mRNA in the presence of chemical substance/The level of expressed mRNA in the absence of chemical substance (yeast gene YPL149W): 5.6
The level of expressed mRNA in the presence of chemical substance/The level of expressed mRNA in the absence of chemical substance (yeast gene YPL154C): 2.8
The level of expressed mRNA in the presence of chemical substance/The level of expressed mRNA in the absence of chemical substance (yeast gene YPR103W): 5.5
The level of expressed mRNA in the presence of chemical substance/The level of expressed mRNA in the absence of chemical substance (yeast gene YPR108W): 3.7
